{
  "source": "patent US6635786B2",
  "about": "“Symmetrically disubstituted aromatic compounds and pharmaceutical compositions for inhibiting poly (ADP-ribose) glycohydrolase, and methods for their use” (Guilford Pharmaceuticals, Inc., priority 2001, dated 2003)",
  "data": [
    {"molecular_target": "T1, human PARG (Homo sapiens, UniProt Q86W56)", "T1 construct": "human PARG from amino acid 378 to 976; GST (glutathione-S-transferase, pGEX-4T1) (N); made in house; host or cells: E. coli BL21", "T1 sequence (Q86W56 378-976)": "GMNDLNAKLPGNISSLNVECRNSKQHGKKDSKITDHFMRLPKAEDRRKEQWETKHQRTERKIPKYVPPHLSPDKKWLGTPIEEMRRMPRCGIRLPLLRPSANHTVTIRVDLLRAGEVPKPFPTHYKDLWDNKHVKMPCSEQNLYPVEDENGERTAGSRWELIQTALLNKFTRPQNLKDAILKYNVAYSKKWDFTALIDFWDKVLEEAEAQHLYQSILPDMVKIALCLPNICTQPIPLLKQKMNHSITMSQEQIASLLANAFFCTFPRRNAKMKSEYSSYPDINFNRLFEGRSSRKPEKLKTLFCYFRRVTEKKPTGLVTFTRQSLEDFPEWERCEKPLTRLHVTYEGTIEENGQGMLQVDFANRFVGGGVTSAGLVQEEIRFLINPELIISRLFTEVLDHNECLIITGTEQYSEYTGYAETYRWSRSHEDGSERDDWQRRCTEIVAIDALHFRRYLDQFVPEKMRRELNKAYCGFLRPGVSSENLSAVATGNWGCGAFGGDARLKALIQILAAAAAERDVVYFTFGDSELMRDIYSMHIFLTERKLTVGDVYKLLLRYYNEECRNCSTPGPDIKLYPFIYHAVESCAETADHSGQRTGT", "assay": "PARG enzymatic assay", "format": "biochemical", "settings": "recombinant GST-fused human PARG (aa 378-976); 3H-labeled poly-(ADP-ribose) substrate; 23° C., 10 min", "description": "The potency of PARG inhibition was determined in a PARG enzymatic assay. For each compound, various doses were used to inhibit the PARG reaction. A dose responsible curve was generated to determine the IC50 value and the concentration (in μM) required to achieve 50% inhibition of the reaction.\nThe PARG assay consisted of (a) preparation of 3H-labeled radioactive PARG as substrate, (b) purification of recombinant PARG, (c) incubation of the compound with the PARG reaction, (d) separation of the product by absorption to glass fiber filter and quantifying the radioactivity of ADP-ribose by scintillation counting.\n3H-labeled poly-(ADP-ribose) was made by mixing labeled and unlabeled PAR. Labeled PAR was synthesized in a reaction of 50 mM Tris-HCl (pH 8.0), 4 mM MgCl2, 0.8 μg/mL activated DNA, 3 μM NAD, NEN 3H-NAD (0.1 mCi/mL), 0.8 μl/mL and 1.4 μl/mL Trevigen PARP. The reaction was incubated at room temperature for 60 min, then dialyzed to remove unincorporated 3H NAD using a MWCO 7000 dialysis cassette in 50 mM Phosphate buffer (pH 7.1) at 5° C. over night. Buffer was changed and dialysis continued for 2 h in the morning. The resulting 3H PAR gave 80,000 DPM/10 μL by scintillation counting.\nUnlabeled PAR was synthesized in a reaction that consisted of 50 mM Tris-HCl (pH 8.0), 4 mM MgCl2, 0.8 μg/mL activated DNA, 150 μM NAD, and 1.9 μl/mL Trevigen PARP. The reaction was incubated at room temperature for 60 min, and dialyzed to remove unincorporated NAD in a MWCO 7000 cassette using 50 mM Phosphate buffer (pH 7.1) over night at […]. Buffer was changed and dialysis continued for 2 h in the morning. The OD260 of synthesized PAR is […].\nThe final PAR mix is made by combining 3H-PAR and PAR synthesized @ 150 μM NAD so that the OD260=0.2-0.3 and the DPM/10 μL=10,000 DPM (SA=0.45 Ci/mmole). EDTA was added to 1 mM.\nA cDNA fragment encoding the carboxy terminal part of human PARG from amino acid 378 to 976 was amplified by polymerase chain reaction with human thymus cDNA (Clontech, Palo Alto, Calif.) as a template and a pair of primers with the sequences of 5′-[…]-3′ and 5′-[…]-3′. The primers contained the restriction enzyme sites EcoRI and XhoI. The PCR amplified PARG DNA fragment was digested with EcoRI and XhoI, and then ligated to the same sites in pGEX-4T1 plasmid (acquired from Pharmacia/Upjohn Co., Kalamazoo, Mich.) to create pGEX-PARG by using standard molecular biology procedure. The pGEX-PARG was transformed into E. coli strain BL21 for expressing the recombinant protein that has a glutathione-S-transferase at the amino terminus and fused in frame with PARG at the carboxy terminus. The recombinant protein was expressed and purified using glutathione-sephadex 4B beads according to the standard methodology.\nA range of potential PARG inhibitors at final concentrations of 200.0 to 0.1 μM were tested, each point done in triplicate. The compounds were dissolved in DMSO resulting in a final DMSO concentration of 5.0%. The reaction was carried out in a volume of 0.1 mL. PARG enzyme was added to a concentration of 0.05 μL/mL to microtiter plates containing approximately 10 μM 3H-labeled poly-(ADP-ribose) in 50 mM Phosphate buffer (pH 7.1), 5 mM B-mercaptoethanol. The reaction was incubated at 23° C. for 10 min. and was stopped with the addition of TCA to a final concentration of 10%.\nEnzyme activity was measured by the disappearance of substrate, [poly-(ADP-ribose) polymer], which was quantified as the loss of glass fiber filter adsorbed radioactivity. The reaction was harvested onto Millipore GFC96 well filter plates using the Packard Cell Harvestor. The plates were washed three times with 70% ethanol, air dried, and the radioactivity was measured by scintillation counting.", "units": {"IC50": "µM"}, "values": [
      {"molecule": "3,9-Bis[3-(1-pyrrolo)propionyl]fluoranthene [Example 55]", "IC50": 27.3},
      {"molecule": "3,9-Bis{N-[(2,3-dimethoxy-phenyl)]-methyl}fluoranthenedicarboxamide [Example 34]", "IC50": 31.2},
      {"molecule": "O=C(OCc1ccc(F)cc1)c1ccc2c(c1)C(Cl)(Cl)c1cc(C(=O)OCc3ccc(F)cc3)ccc1-2", "note": "[Example 4, 9,9-Dichloro-9H-fluorene-2,7-dicarboxylic acid bis-(p-fluorobenzyl) ester]", "IC50": 18.9},
      {"molecule": "O=C(OCCc1ccccc1)c1ccc2c(c1)C(Cl)(Cl)c1cc(C(=O)OCCc3ccccc3)ccc1-2", "note": "[Example 5, 9,9-Dichloro-9H-fluorene-2,7-dicarboxylic acid bis-(2-phenyl-ethyl) ester]", "IC50": 11.2},
      {"molecule": "O=C(OCc1ccc(O)c(O)c1)c1ccc2c(c1)C(Cl)(Cl)c1cc(C(=O)OCc3ccc(O)c(O)c3)ccc1-2", "note": "[Example 6, 9,9-Dichloro-9H-fluorene-2,7-dicarboxylic acid bis-(3,4-dihydroxy-benzyl) ester]", "IC50": 10},
      {"molecule": "COC(=O)c1ccc2c(c1)C(Cl)(Cl)c1cc(C(=O)OC)ccc1-2", "note": "[Example 7, 9,9-Dichloro-9H-fluorene-2,7-dicarboxylic acid bis-methyl ester]", "IC50": 45.6},
      {"molecule": "O=C(OCCc1cccc2ccccc12)c1ccc2c(c1)C(Cl)(Cl)c1cc(C(=O)OCCc3cccc4ccccc34)ccc1-2", "note": "[Example 8, 9,9-Dichloro-9H-fluorene-2,7-dicarboxylic acid bis-(2-naphthalen-1-yl-ethyl) ester]", "IC50": 17.1},
      {"molecule": "O=C(OCCc1ccc2ccccc2c1)c1ccc2c(c1)C(Cl)(Cl)c1cc(C(=O)OCCc3ccc4ccccc4c3)ccc1-2", "note": "[Example 9, 9,9-Dichloro-9H-fluorene-2,7-dicarboxylic acid bis-(2-naphthalen-2-yl-ethyl) ester]", "IC50": 46.6},
      {"molecule": "O=C(OCc1ccc2ccccc2c1)c1ccc2c(c1)C(Cl)(Cl)c1cc(C(=O)OCc3ccc4ccccc4c3)ccc1-2", "note": "[Example 10, 9,9-Dichloro-9H-fluorene-2,7-dicarboxylic acid bis-(2-naphthalen-2-yl-methyl) ester]", "IC50": 27.1},
      {"molecule": "O=C(OCc1cccc2ccccc12)c1ccc2c(c1)C(Cl)(Cl)c1cc(C(=O)OCc3cccc4ccccc34)ccc1-2", "note": "[Example 11, 9,9-Dichloro-9H-fluorene-2,7-dicarboxylic acid bis-(2-naphthalen-1-yl-methyl) ester]", "IC50": 7.9},
      {"molecule": "COc1ccc(CCCCOC(=O)c2ccc3c(c2)C(Cl)(Cl)c2cc(C(=O)OCCCCc4ccc(OC)cc4)ccc2-3)cc1", "note": "[Example 12, 9,9-Dichloro-9H-fluorene-2,7-dicarboxylic acid bis-[4-(4-methoxy-phenyl)-butyl]ester]", "IC50": 18.3},
      {"molecule": "O=C(NCc1cccc2ccccc12)c1ccc2c(c1)C(Cl)(Cl)c1cc(C(=O)NCc3cccc4ccccc34)ccc1-2", "note": "[Example 14, 2,7 Bis-[N-(naphthalen-1-ylmethyl)-carbamoyl]-9,9-dichloro-9H-fluorene]", "IC50": 47.7},
      {"molecule": "O=C(NCCc1ccccc1)c1ccc2c(c1)C(Cl)(Cl)c1cc(C(=O)NCCc3ccccc3)ccc1-2", "note": "[Example 15, 2,7-Bis-[N-(phenethyl)-carbamoyl]-9,9-dichloro-9H-fluorene]", "IC50": 24.9},
      {"molecule": "O=C(NCc1ccccc1)c1ccc2c(c1)C(=O)c1cc(C(=O)NCc3ccccc3)ccc1-2", "note": "[Example 17, 2,7-Bis(N-benzylcarbamoyl)-9-Oxo-9H-fluorene]", "IC50": 21.8},
      {"molecule": "O=C(NCc1ccccc1)c1ccc(C(=O)c2ccc(C(=O)NCc3ccccc3)cc2)cc1", "note": "[Example 19, 4,4′-Bis(N-benzyl)carbamoyl-benzophenone]", "IC50": 75},
      {"molecule": "O=C(NCCCc1ccccc1)c1ccc(C(=O)c2ccc(C(=O)NCCCc3ccccc3)cc2)cc1", "note": "[Example 20, 4,4′-Bis(N-phenpropyl)carbamoyl-benzophenone]", "IC50": 40.1},
      {"molecule": "O=C(NCCc1ccccc1)c1cccc(C(=O)c2cccc(C(=O)NCCc3ccccc3)c2)c1", "note": "[Example 21, 3,3′-Bis(N-phenethyl)carbamoyl-benzophenone]", "IC50": 65.6},
      {"molecule": "O=C(NCc1ccccc1)c1ccc2c(c1)-c1ccc(C(=O)NCc3ccccc3)c3cccc-2c13", "note": "[Example 23, 3,9-Bis(N-phenylmethyl)fluoranthenedicarboxamide]", "IC50": 35.2},
      {"molecule": "O=C(NCCN1CCCCC1)c1ccc2c(c1)-c1ccc(C(=O)NCCN3CCCCC3)c3cccc-2c13", "note": "[Example 24, 3,9-Bis[N-(2-piperidin-1-yl)ethyl]fluoranthenedicarboxamide]", "IC50": 57},
      {"molecule": "O=C(NCCN1CCCC1)c1ccc2c(c1)-c1ccc(C(=O)NCCN3CCCC3)c3cccc-2c13", "note": "[Example 25, 3,9-Bis[N-(2-pyrrolidin-1-yl)-ethyl]fluoranthenedicarboxamide]", "IC50": 28.6},
      {"molecule": "O=C(NCc1cccnc1)c1ccc2c(c1)-c1ccc(C(=O)NCc3cccnc3)c3cccc-2c13", "note": "[Example 26, 3,9-Bis[N-(pyridin-3-yl)methyl]fluoranthenedicarboxamide]", "IC50": 100},
      {"molecule": "O=C(NCCCN1CCOCC1)c1ccc2c(c1)-c1ccc(C(=O)NCCCN3CCOCC3)c3cccc-2c13", "note": "[Example 27]", "IC50": 100},
      {"molecule": "COc1ccc(CNC(=O)c2ccc3c(c2)-c2ccc(C(=O)NCc4ccc(OC)c(OC)c4)c4cccc-3c24)cc1OC", "note": "[Example 28, 3,9-Bis[N-(3,4-dimethoxy-benzyl)]fluoranthenedicarboxamide]", "IC50": 11.1},
      {"molecule": "O=C(NCCOc1ccccc1)c1ccc2c(c1)-c1ccc(C(=O)NCCOc3ccccc3)c3cccc-2c13", "note": "[Example 29, 3,9-Bis[N-(2-phenoxy)ethyl]fluoranthenedicarboxamide]", "IC50": 29},
      {"molecule": "O=C(NCCc1ccc(Cl)cc1Cl)c1ccc2c(c1)-c1ccc(C(=O)NCCc3ccc(Cl)cc3Cl)c3cccc-2c13", "note": "[Example 30, 3,9-Bis[N-[2-(2,4-dichloro-phenyl)]-ethyl]fluoranthenedicarboxamide]", "IC50": 21.2},
      {"molecule": "N#CC1CCC(CNC(=O)c2ccc3c(c2)-c2ccc(C(=O)NCC4CCC(C#N)CC4)c4cccc-3c24)CC1", "note": "(centres unmarked) [Example 31]", "IC50": 30.4},
      {"molecule": "COc1ccccc1CCNC(=O)c1ccc2c(c1)-c1ccc(C(=O)NCCc3ccccc3OC)c3cccc-2c13", "note": "[Example 32, 3,9-Bis{N-[2-(2-methoxy-phenyl)]-ethyl}fluoranthenedicarboxamide]", "IC50": 21.1},
      {"molecule": "COc1cccc(CCNC(=O)c2ccc3c(c2)-c2ccc(C(=O)NCCc4cccc(OC)c4)c4cccc-3c24)c1", "note": "[Example 33, 3,9-Bis{N-[2-(3-methoxy-phenyl)]-ethyl}fluoranthenedicarboxamide]", "IC50": 45.5},
      {"molecule": "NS(=O)(=O)c1ccc(CCNC(=O)c2ccc3c(c2)-c2ccc(C(=O)NCCc4ccc(S(N)(=O)=O)cc4)c4cccc-3c24)cc1", "note": "[Example 35, 3,9-Bis[N-[2-(4-sulfamoyl-phenyl)]-ethyl]fluoranthenedicarboxamide]", "IC50": 15.1},
      {"molecule": "O=C(OCc1ccccn1)c1ccc2c(c1)-c1ccc(C(=O)OCc3ccccn3)c3cccc-2c13", "note": "[Example 36, 3,9-Bis(2-pyridinylmethyl)fluoranthenedicarboxylate]", "IC50": 106},
      {"molecule": "O=C(CCCl)c1ccc2oc3ccc(C(=O)CCCl)cc3c(=O)c2c1", "note": "[Example 38, 2,7-Bis-(3-chloro-propionyl)-xanthen-9-one]", "IC50": 17},
      {"molecule": "O=C(c1cccc2c1S(=O)(=O)c1c(cccc1C(=O)N1CCN(c3ccc(F)cc3)CC1)O2)N1CCN(c2ccc(F)cc2)CC1", "note": "[Example 43, 1,9-Bis{N-[4-(4-fluoro-phenyl)-piperazine-carbamoyl]}-10,10-dioxo-phenoxathiin]", "IC50": 5.7}
    ]}
  ]
}
